Patent publication US7868026B2, “Therapeutic compounds” (Pfizer Inc., priority 2005, dated 2011)
Where two headings read alike, the source gives them in different places.

Tests used:
Type in all cases: biochemical
CYP3A4 [1] = biological target: T1, CYP3A4 (Homo sapiens, UniProt P08684); assay: Determination of compound Kiapp against recombinant CYP3A4 enzyme (BFC fluorescent substrate)
Method: 1. Determination of compound Kiapp
A determination of the Kiapp of the compounds of the invention against recombinant CYP3A4 enzyme was performed as follows. The assay was performed in a 100 mM sodium phosphate buffer pH 7.0, 5 mM TCEP and containing 2% dimethylformamide (final concentration) upon addition of substrate and inhibitor. A typical reaction for the determination of Kiapp values was carried at room temperature in a solid black Costar u-bottom 96-well polypropylene plate. In each well, recombinant CYP3A4 enzyme (5.5 nM or 8 nM, final concentration depending on the commercial source of the enzyme) was pre-incubated in the presence of the inhibitor for at least 30 minutes in the assay buffer. When pre-incubation was completed (˜30 min), the reaction was initiated by adding NADPH (200 uM, final concentration), and 7-benzyloxy-4-(trifluoromethyl)-coumarin (BFC) (5 uM, final concentration). The oxidation of the coumarin substrate was recorded by a 96-well plate reader POLARstar (BMG LABTECH, Offenburg, Germany).
The initial reaction velocities were measured during the first 5 min of the reaction when the release of the fluorescent product is linear with time, in the absence and in the presence of various concentrations of inhibitors. For non-partial & partial inhibitors, the Kiapp values were determined by using the equation for tight-binding inhibitor developed by Morrison, J F (Morrison J F. Biochim Biophys Acta. 1969, 185: 269-86) and by Szedlaseck S E et al. (Szedlascek, S. E., Ostafe, V., Serban, M., and Vlad, M.O. Biochem. J. 1988, 254:311-312), respectively.
The fluorescent substrate BFC was purchased from Sigma (St Louis, Mo.). Two commercial sources of recombinant enzymes were used in this study: recombinant CYP3A4−b5 enzyme (Baculosomes®) was purchased from Invitrogen (Carlsbad, Calif.) and the recombinant CYP3A4+b5 enzyme (Supersomes®) was purchased from BD Biosciences (Woburn, Mass.).

CYP3A4 [2] = biological target: T1, CYP3A4; assay: Determination of IC50 against CYP3A4 by measurement of inhibition of testosterone metabolism (human liver microsomes, 6-β-OH-testosterone by LC-MS/MS); parameters: 0.1 mg/mL human liver microsomes; conditions: read-out: IC50 (Testo.)
Method: 2. Determination of IC50 Against CYP3A4 by Measurement of Inhibition of Testosterone Metabolism
(§1) This assay was performed using a standard 96 well plate design. […] The incubation substrate mix contains 25 μM testosterone, 0.1 mg/mL human liver microsomes, 1 mM NADPH, and potassium phosphate buffer (100 mM, pH 7.4). Quantitation of metabolite peak area ratio against an internal standard is determined by LC-MS/MS analysis. The production of 6-β-OH-testosterone from testosterone metabolism is determined after incubation for eight minutes by comparison to a standard curve generated for the metabolite
(§2) Samples were analyzed in the MRM mode using a Sciex API 3000 mass spectrometer (Applied Biosystems, Foster City, Calif.) with a Paradigm MS4 binary pump (Michrom BioResources Inc., Auburn, Calif.) and a LEAP CTC PAL autosampler (LEAP Technologies, Carrboro, N.C.). A Phenomenex Synergi, 4μ, Polar-RP, 10×2.0 mm column (Phenomenex, Torrance, Calif.) was used for separation with a mobile phase composition of: 0.1% formic acid in water (A) and: 0.1% formic acid in methanol (B). The following gradient was used: […]
(§3) The sample injection volume was 10 μL and flow was split post-column with 0.4 mL/min going to the mass spectrometer. Analysis was performed using the following API 3000 mass spectrometer settings: […]

CYP3A4 [3] = biological target: T1, CYP3A4; assay: Determination of IC50 against CYP3A4 by measurement of inhibition of midazolam metabolism (human liver microsomes, 1-hydroxymidazolam by LC-MS/MS); parameters: 0.1 mg/mL human liver microsomes; conditions: 2 μM midazolam, 0.1 mg/mL human liver microsomes
Method: 3. Determination of IC50 Against CYP3A4 by Measurement of Inhibition of Midazolam Metabolism
as §1, with “contains 2” for “contains 25”, “μM midazolam,” for “μM testosterone,”, “against” for “against an”, “of 1-hydroxymidazolam” for “of 6-β-OH-testosterone”, “from midazolam” for “from testosterone”, “the metabolite.” for “the metabolite”
as §2, §3

[4] = Baculo. enzyme preparation, read-out: Kiapp (BFC, Baculo.)
[5] = Super. enzyme preparation, read-out: Kiapp (BFC, Super.)

T1 sequence (P08684 whole entry): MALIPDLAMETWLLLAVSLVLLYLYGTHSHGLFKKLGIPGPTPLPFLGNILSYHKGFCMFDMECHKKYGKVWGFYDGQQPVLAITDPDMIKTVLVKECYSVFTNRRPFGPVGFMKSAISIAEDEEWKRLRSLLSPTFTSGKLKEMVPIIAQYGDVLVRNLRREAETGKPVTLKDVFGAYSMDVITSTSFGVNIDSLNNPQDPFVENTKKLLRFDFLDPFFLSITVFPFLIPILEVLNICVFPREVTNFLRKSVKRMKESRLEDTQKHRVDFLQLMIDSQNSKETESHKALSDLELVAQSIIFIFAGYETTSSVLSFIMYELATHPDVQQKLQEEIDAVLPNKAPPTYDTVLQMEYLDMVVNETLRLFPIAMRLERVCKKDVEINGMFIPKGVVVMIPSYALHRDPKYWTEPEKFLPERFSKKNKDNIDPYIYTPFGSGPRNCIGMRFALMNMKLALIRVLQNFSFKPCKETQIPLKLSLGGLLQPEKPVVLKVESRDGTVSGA

| SMILES | Ki (CYP3A4 [1]; [4]) [nM] | Ki (CYP3A4 [1]; [5]) [nM] | IC50 (CYP3A4 [2]) [nM] | IC50 (CYP3A4 [3]) [nM] |
| --- | --- | --- | --- | --- |
| COc1cncc(NS(=O)(=O)c2ccccc2C(=O)NC(C)c2ccc(Cl)cc2)c1 (centres unmarked) [Example 182, N-[1-(4-chlorophenyl)ethyl]-2-{[(5-methoxypyridin-3-yl)amino]sulfonyl}benzamide] | 37.4 | 3.5 | 13 | 6 |
| CCCCCN(C)C(=O)c1cc(Cl)ccc1S(=O)(=O)Nc1cncc(OC)c1 [Example 268, 5-chloro-2-{[(5-methoxypyridin-3-yl)amino]sulfonyl}-N-methyl-N-pentylbenzamide] | 110 | 19.4 | 63 | 44 |
| CCN(CCn1cccn1)C(=O)c1ccccc1S(=O)(=O)Nc1cccnc1 [Example 40, N-ethyl-N-[2-(1H-pyrazol-1-yl)ethyl]-2-[(pyridin-3-ylamino)sulfonyl]benzamide] | > 1000 |  | 340 | 179 |
| COc1ccncc1NS(=O)(=O)c1ccccc1C(=O)NCCc1ccccc1F [Example 222] | 207 | 12.7 | 34 | 15 |
| Cc1ccc(CNC(=O)c2ccccc2S(=O)(=O)Nc2cnccc2C)cc1F [Example 166, N-(3-fluoro-4-methylbenzyl)-2-{[(4-methylpyridin-3-yl)amino]sulfonyl}benzamide] | 196 | 35.1 | 26 | 23 |
| CC(C)(CN1CCCC1)NC(=O)c1ccccc1S(=O)(=O)Nc1cccnc1 [Example 3] | 858 | > 1000 | > 750 | > 750 |
| COc1cncc(NS(=O)(=O)c2ccccc2C(=O)NCCc2ccc(F)cc2F)c1 [Example 191, N-[2-(2,4-difluorophenyl)ethyl]-2-{[(5-methoxypyridin-3-yl)amino]sulfonyl}benzamide] | 59.7 | 5 | 15 | 10 |
| COc1ccc(CNC(=O)c2ccccc2S(=O)(=O)Nc2cccnc2)c(OC)c1 [Example 53, N-(2,4-dimethoxybenzyl)-2-[(pyridin-3-ylamino)sulfonyl]benzamide] | 613 |  | 49 | 24 |
| CCCCCNC(=O)c1ccccc1S(=O)(=O)N(C)c1cccnc1 [Example 340, 2-{[methyl(pyridin-3-yl)amino]sulfonyl}-N-pentylbenzamide] | 338 | 92.2 | 44 | 41 |
| COc1cncc(NS(=O)(=O)c2ccccc2C(=O)NC(C)CC(C)C)c1 (centres unmarked) [Example 204, N-(1,3-dimethylbutyl)-2-{[(5-methoxypyridin-3-yl)amino]sulfonyl}benzamide] | 52.5 | 12.6 | 12 | < 3 |
| COc1cc(CNC(=O)c2ccccc2S(=O)(=O)Nc2cccnc2)cc(OC)c1 [Example 51, N-(3,5-dimethoxybenzyl)-2-[(pyridin-3-ylamino)sulfonyl]benzamide] | 680 |  | 57 | 34 |
| CC1(C)CCCN(C(=O)c2ccccc2S(=O)(=O)Nc2cccnc2)C1 [Example 29, 2-[(3,3-dimethylpiperidin-1-yl)carbonyl]-N-pyridin-3-ylbenzenesulfonamide] | 324 |  | 172 | 76 |
| CC(C)(CN1CCCCC1)NC(=O)c1ccccc1S(=O)(=O)Nc1cccnc1 [Example 2, N-(1,1-dimethyl-2 piperidin-1-ylethyl)-2-[(pyridin-3-ylamino)sulfonyl]benzamide] | 901 | 570 | > 750 | > 750 |
| COc1cncc(NS(=O)(=O)c2ccccc2C(=O)NCc2cccc(F)c2F)c1 [Example 181, N-(2,3-difluorobenzyl)-2-{[(5-methoxypyridin-3-yl)amino]sulfonyl}benzamide] | 71.8 | 10.8 | 13 | 7 |
| COc1cncc(NS(=O)(=O)c2ccccc2C(=O)NCc2c(F)cccc2F)c1 [Example 207, N-(2,6-difluorobenzyl)-2-{[(5-methoxypyridin-3-yl)amino]sulfonyl}benzamide] | 105 | 19.1 | 24 | 5 |
| O=C(c1ccccc1S(=O)(=O)Nc1cccnc1)N1Cc2ccccc2C1 [Example 88, 2-(1,3-dihydro-2H-isoindol-2-ylcarbonyl)-N-pyridin-3-ylbenzenesulfonamide] | 362 | 47.6 | 28 | 185 |
| CN(Cc1ccccc1F)C(=O)c1ccccc1S(=O)(=O)Nc1cccnc1 [Example 73, N-(2-fluorobenzyl)-N-methyl-2-[(pyridin-3-ylamino)sulfonyl]benzamide] | 124 | 10.7 | < 3 | 38 |
| Cc1ccncc1NS(=O)(=O)c1ccccc1C(=O)NCCOc1ccccc1 [Example 171, 2-{[(4-methylpyridin-3-yl)amino]sulfonyl}-N-(2-phenoxyethyl)benzamide] | 299 | 49.1 | 38 | 35 |
| CCCCCN(C)C(=O)c1ccccc1S(=O)(=O)Nc1cccnc1 [Example 47, N-methyl-N-pentyl-2-[(pyridin-3-ylamino)sulfonyl]benzamide] | 332 |  | 30 | 26 |
| COc1cncc(NS(=O)(=O)c2ccccc2C(=O)NCc2ccccc2F)c1 [Example 378, N-(2-fluorobenzyl)-2-{[(5-methoxypyridin-3-yl)amino]sulfonyl}benzamide] | 78 | 18.7 | 14 | 13 |
| CC(C)(C)NC(=O)c1ccccc1S(=O)(=O)Nc1cccnc1 [Example 14, N-(tert-butyl)-2-[(pyridin-3-ylamino)sulfonyl]benzamide] | 503 |  | 60 |  |
| CC(C)(CNC(=O)c1ccccc1S(=O)(=O)Nc1cccnc1)N1CCOCC1 [Example 32, N-(2-methyl-2-morpholin-4-ylpropyl)-2-[(pyridin-3-ylamino)sulfonyl]benzamide] |  |  | > 750 | 413 |
| O=C(c1ccccc1S(=O)(=O)Nc1cccnc1)N1CCN(c2ccc(F)cc2)CC1 [Example 13, 2-{[4-(4-fluorophenyl)piperazin-1-yl]carbonyl}-N-pyridin-3-ylbenzenesulfonamide] | 251 |  | 24 |  |
| CC(C)(CN1CCOCC1)NC(=O)c1ccccc1[S+]([O-])Cc1cccnc1 (centres unmarked) [Example 70, N-(1,1-dimethyl-2-morpholin-4-ylethyl)-2-[(pyridin-3-ylmethyl)sulfinyl]benzamide] | 800 |  | 421 |  |
| CCC(C)CNC(=O)c1ccccc1S(=O)(=O)Nc1cnccc1OC (centres unmarked) [Example 116, 2-{[(4-methoxypyridin-3-yl)amino]sulfonyl}-N-(2-methylbutyl)benzamide] | 317 | 50.9 |  | 33 |
| COc1cncc(NS(=O)(=O)c2ccccc2C(=O)N(CCO)C(C)C)c1 [Example 98, N-(2-hydroxyethyl)-N-isopropyl-2-{[(5-methoxypyridin-3-yl)amino]sulfonyl}benzamide] | 506 | 196 |  | 51 |
